# From patent EP0696280B1, “SUBSTITUTED PYRROLIDIN-3-YL-ALKYL-PIPERIDINES USEFUL AS TACHYKININ ANTAGONISTS” (MERRELL PHARMACEUTICALS INC., priority 1993, dated 1994)
# Counter-ions that a name gives are not always drawn. Like-named read-outs stand apart in the source and are kept apart here.
# How the values were obtained:
# NK2 receptor = target: T1, NK2 receptor (Bos taurus, UniProt P05363); assay: Antagonism of NK2 receptor mediated (NKA-induced) phosphatidylinositol turnover in SKLKB82#3 cells; type: cell-based
# T1 construct: expressed in transfected cells; host or cells: SKLKB82#3 cells
# T1 sequence (P05363 1-384): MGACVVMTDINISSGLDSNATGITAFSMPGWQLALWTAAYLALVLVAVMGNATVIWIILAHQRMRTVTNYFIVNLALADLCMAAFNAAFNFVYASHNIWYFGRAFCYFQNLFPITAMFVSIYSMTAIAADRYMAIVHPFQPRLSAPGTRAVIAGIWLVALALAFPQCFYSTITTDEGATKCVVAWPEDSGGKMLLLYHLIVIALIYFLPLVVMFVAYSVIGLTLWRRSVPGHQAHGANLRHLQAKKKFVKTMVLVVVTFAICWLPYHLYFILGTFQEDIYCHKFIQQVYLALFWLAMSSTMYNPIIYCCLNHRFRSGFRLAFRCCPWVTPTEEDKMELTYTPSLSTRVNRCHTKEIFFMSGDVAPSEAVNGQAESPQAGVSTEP
# Protocol: Tachykinin-mediated inositol phosphate accumulation was measured in UCll or SKLKB82#3 cells in the presence and absence of NK1 or NK2 receptor antagonists, respectively. Tissues were incubated in Krebs-Henseleit buffer at 37°C with 95% O2-5% CO2 gassing. Tissues were then incubated with fresh buffer containing 100 µCi of myo-[2-^3H(N)] inositol at 37°C for 60 min with gentle gassing. After washing twice at room temperature in 5 ml buffer containing 10 mM LiCl, tissues were incubated for 30 min at room temperature with a buffer change at 15 min. Buffer was removed and Krebs-Henseleit buffer (containing 40 µg/ml bacitracin, 4 µg/ml each of leupeptin and chymostatin, 0.1% bovine serum albumin and 10 mM each of thiorphan and LiCl) added. After 15 min, SP was added to UCll cells or NKA to SKLKB82#3 cells at various concentrations to start the reaction. After incubation for 60 min at room temperature the reaction was terminated by addition of 930 µl chloroform: methanol (1:2 by volume) to each tube, followed by 310 µl chloroform and 310 µl doubly distilled water. Samples were vortexed, centrifuged, and 0.9 ml of the aqueous (top) phase removed and added to 2 ml ddH2O. The mixture was vortexed and loaded onto a 50% Bio-Rad AG 1-X8 (formate form, 100-200 mesh) exchange column (Bio-Rad Laboratories, Hercules, CA). The columns were washed, in order, with: 1) 10 ml doubly distilled water, 2) 5 ml of 5 mM disodium tetraborate/60 mM sodium formate, and 3) 5 ml of 1 M ammonium formate/0.1 M formic acid. The third elution was collected and 1 ml counted in 7 ml scintillation fluid. A 50 µl aliquot of the organic (bottom) phase was removed, dried in a scintillation vial and counted in 7 ml scintillation fluid.
# The ratio of DPM in the aqueous phase aliquot (total inositol phosphates) to the DPM in the 50 µl organic phase aliquot (total [^3H]inositol incorporated) was calculated for each sample. Data are expressed as a percent of agonist-induced accumulation of [^3H]-inositol phosphates over basal levels. The ratios in the presence of test compound and/or standards were compared to the ratios for control samples (i.e. no stimulating agonist). Dose-response graphs were constructed and the abilities of the test compounds to inhibit tachykinin-induced phosphatidylinositol turnover determined with the aid of a computer program. […] Data is expressed as percent stimulation of total inositol phosphate accumulation over basal levels and normalized to the maximum response produced by SP. […] Schild analysis is performed using dose response curves (such as those presented in Figures 1a and 1b) to obtain a value indicative of the strength of a competitive antagonist and is expressed as the pA2, which is the negative logarithm of the molar concentration of antagonist which reduces the effect of a dose of agonist to one-half of that expected at the dose of agonist. […]
# Values are mean (95% confidence limits) derived from Schild analysis of 2-3 experiments per compound per receptor.
# [1] = test system: NKA-induced respiratory effects; assay: Antagonism of NKA aerosol induced respiratory effects in conscious guinea pigs (whole body plethysmography); type: in vivo, guinea pig; conditions: 20 min prior to NKA aerosol (0.05%); for DYSPNEA ONSET: mean and SEM
# Protocol: In vivo experiments were performed using male Duncan Hartley guinea pigs (250-350g). Changes in conscious breathing patterns were monitored in four animals simultaneously using modified whole body plethysmography consisting of four small plexiglass boxes each connected to a reference box via Validyne DP 45-16 differential pressure transducers. The 4 boxes were equipped with an air supply line (also used for aerosol delivery) and an exhaust air line. Supply and exhaust lines were of the same length and narrow bore and arose from a common supply chamber and vented to a common exhaust chamber. This system was used to ensure that fluctuations in supply air and atmospheric pressure would remain in phase and be eliminated from the net signal by the differential pressure transducers. The analog pressure signals were digitalized via a Data Translation DT2821 A to D board. Data were collected at a rate of 100 samples/second/animal. Each cycle of pressure change was analyzed using the following parameters: rising and falling slope determined between minimum and maximum pressures, the ratio of rising over falling slope, and the magnitude of the change between initial trough pressure and peak cycle pressure. Using these values (and observing the animals) the pressure cycles were characterized into normal breaths, forced exhalations (apparent by abdominal heaving), significant respiratory events (SREs; usually coughs, less often sneezes or gasps which were characterized by transient, extremely large pressure increases which were distinguishable from noise) and movement/noise with a PCAT 286 running a System V UNIX operating system. Dyspnea was defined as a significant, sustained increase in plethysmograph pressure which was associated with an observable shift to labored breathing in the animal.
# During the course of a typical experiment in which airway responsiveness to various bronchoconstricting agents was examined, aerosols were delivered for 19 min (0.33 ml/min) using a DeVilbiss Ultraneb 99 ultrasonic nebulizer and animals monitored during this time. Prior to nebulization, 1 min of resting breathing was collected to establish a baseline pressure. […] The vehicle for nebulization of all bronchoconstrictive agents was phosphate buffered saline (pH 7.4) which elicited no respiratory effects itself. Putative tachykinin antagonists were administered either (i.v.) 20 min prior to onset of aerosol exposure or orally 1 hour prior to onset (to guinea pigs after an overnight fast).
# Table 6 illustrates the effects of the compounds of Example 3; Example 20A; and Example 5A on respiratory effects induced by NKA aerosol. […] These effects were dose dependent i.e. the higher the dose of compound, the greater attenuation of NKA-mediated effects. […]
# Compounds were administered 20 min prior to initiation of NKA aerosol (0.05%). Values for each treatment represent the mean and SEM of data from 5-37 animals per dose.
# [2] = Schild analysis, NKA in SKLKB82#3 cells, mean (95% confidence limits), 2-3 experiments
Structure (SMILES),Kb (NK2 receptor),NK-2 RECEPTOR -SLOPE (NK2 receptor; [2]),"antagonism of the receptor mediated NKA induced PI turnover (NK2 receptor; SKLKB82#3 cells, Figure 1b, result in words)",DYSPNEA INCIDENCE ([1]; 5 mg/kg),DYSPNEA ONSET ([1]; 5 mg/kg),DYSPNEA INCIDENCE ([1]; 10 mg/kg),DYSPNEA ONSET ([1]; 10 mg/kg),"Kb (NK2 receptor; Schild analysis, NKA in SKLKB82#3 cells, mean (95% confidence limits), 2-3 experiments, read-out: NK-2 RECEPTOR pA2 (converted))"
"COc1cc(C(=O)N2CCC(CCN3CCC(C(N)=O)(c4ccccc4)CC3)(c3ccc(Cl)c(Cl)c3)C2)cc(OC)c1OC (racemic) [Example 3A, 1-[2-[3-(3,4-dichloro-phenyl-3-yl)-1-(3,4,5-trimethoxy-benzoyl)-pyrrolidin-3-yl]-ethyl] -4-phenyl-piperidine-4-carboxylic acid amide hydrochloride]",1.78 nM,0.73 (0.49-0.97),,,,,,
"COc1cc(C(=O)N2CCC(CCN3CCC(C(N)=O)(c4ccccc4)CC3)(c3ccc(Cl)c(Cl)c3)C2)cc(OC)c1OC (stereo not shown) [Example 3, 1-[2-[3-(3,4-dichloro-phenyl)-1-(3,4,5-trimethoxy-benzoyl)-pyrrolidin-3-yl]-ethyl]-4-phenyl-piperidine-4-carboxylic acid amide]",,,dose related antagonism,86% (6/7),394 ± 32 s,60% (6/10),801 ± 104 s,
"COc1cccc(OC)c1C(=O)N1CCC(CCN2CCC(C(N)=O)(c3ccccc3)CC2)(c2ccc(Cl)c(Cl)c2)C1 (racemic) [Example 5A, 1-[2-[3-(3,4-dichloro-phenyl-3-yl)-1-(2,6-dimethoxy-benzoyl)-pyrrolidin-3-yl]-ethyl]-4-phenyl-piperidine-4-carboxylic acid amide hydrochloride]",,1.11 (0.99-1.23),,60% (3/5),654 ± 37 s,54% (7/13),608 ± 65 s,44.7 nM
